These are literature values, as cited in patent US11325944B2 (priority 2017, dated 2022).

In data set [1] the test system is KOR.
The target of data set [2] is KOR (Homo sapiens, UniProt P41145).
For a further data set, the target named is DOR. The settings on record: δ opioid receptor, CHO cell membranes; read-out: Kd of radioligand.

[ ]: non-standard residue; d: D form.

Sequence of KOR (Homo sapiens, UniProt P41145) (P41145 whole entry): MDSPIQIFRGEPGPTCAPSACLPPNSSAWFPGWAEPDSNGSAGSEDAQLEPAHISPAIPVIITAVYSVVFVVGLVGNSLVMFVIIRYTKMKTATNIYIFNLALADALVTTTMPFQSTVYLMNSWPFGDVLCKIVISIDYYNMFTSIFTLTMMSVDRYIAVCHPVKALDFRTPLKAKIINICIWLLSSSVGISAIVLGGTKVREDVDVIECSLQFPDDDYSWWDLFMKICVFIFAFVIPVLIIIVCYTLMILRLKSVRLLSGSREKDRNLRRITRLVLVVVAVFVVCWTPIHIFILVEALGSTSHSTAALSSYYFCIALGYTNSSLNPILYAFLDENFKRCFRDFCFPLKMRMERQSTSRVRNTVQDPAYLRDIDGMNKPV

As to “cyclo [CJ-15,208, cyclo [Phe-D-Pro-Phe-Trp]]”, the “agonist (antinociceptive) activity in vivo” value with KOR [1] is listed as “mild agonist (antinociceptive) activity”.

cyclo(F[dP]F[dW]) [[D-Trp]CJ-15,208]: in the data set with KOR [1] (in vivo), the KOR antagonism result is given as “exhibited KOR antagonism”. Also, at KOR [2], the “selectivity for KOR over MOR and DOR” value is “selective activity against the kappa opioid receptor (KOR) over mu opioid receptors (MOR) and delta opioid receptors (DOR)”. The “KOR antagonism in vitro” value on KOR [2] (in vitro) is “antagonize KOR in vitro”.

In the case of “cyclo[D-Pen^2, D-Pen]enkephalin [[^3H]-DPDPE]”, the Kd at DOR was 1.76 nM.

By Kd is commonly meant the constant that tells how readily two partners part at equilibrium.
